Results reported in patent US20210228560A1 (Centogene IP GmbH, priority 2011, published 2021).

How the values were obtained:
[1] = system: α-Gal A protein (GLA mutants); experiment: Western blot of GLA protein levels in cells transfected with GLA mutants; type: cell-based; conditions: DGJ and Ambroxol compared to DGJ alone; FIG. 4
Protocol: Western blot analysis for the detection of α-Gal A protein was performed using a commercially available rabbit anti-α-Gal A polyclonal antibody ([H-104] Santa Cruz) Furthermore, a mouse GAPDH monoclonal antibody ([6C5] abcam) was used as an internal loading control.
The cells were then rinsed off from the wells, transferred to micro centrifuge tubes and spun at 14000×g for 10 minutes at 4° C. to pellet the cell debris. The supernatant was used for the analysis. After the determination of protein concentration, […] protein were mixed with a suitable volume of 5× Laemmli loading buffer, boiled for 5 minutes on a thermo shaker (Eppendorf), centrifuged at 14000×g for 10 minutes at 4° C. and loaded on a Criterion precast 4-15% Tris-HCl gel (Bio-Rad). Proteins were transferred electorophoretically to a Nitrocellulose (Amersham Hybond ECL) membrane (GE Healthcare). The membrane was blocked with 5% (w/v) non-fat dried skimmed milk in TBS-Tween 20 [10 mM Tris/HCl (pH 7.5) with 150 mM NaCl and 0.1% Tween 20] at room temperature for 1 hour, and then treated with a primary antibody against GAPDH diluted 1:10000 in a milk/blot solution [3% (w/v) non-fat dried skimmed milk in TBS-Tween 20] at 4° C. overnight. […] Following extensive washing with TBS-Tween 20, protein bands were visualized with an Odyssey Infrared Imager (Li-Cor) and quantified using the Odyssey software.

[2] = target: acid α-glucosidase mutants (Homo sapiens, UniProt P10253, Y575S); type: cell-based; conditions: NB-DNJ and Ambroxol combination; FIG. 7A
Sequence of acid α-glucosidase mutants (Homo sapiens, UniProt P10253, Y575S) (P10253 70-952 Y575S): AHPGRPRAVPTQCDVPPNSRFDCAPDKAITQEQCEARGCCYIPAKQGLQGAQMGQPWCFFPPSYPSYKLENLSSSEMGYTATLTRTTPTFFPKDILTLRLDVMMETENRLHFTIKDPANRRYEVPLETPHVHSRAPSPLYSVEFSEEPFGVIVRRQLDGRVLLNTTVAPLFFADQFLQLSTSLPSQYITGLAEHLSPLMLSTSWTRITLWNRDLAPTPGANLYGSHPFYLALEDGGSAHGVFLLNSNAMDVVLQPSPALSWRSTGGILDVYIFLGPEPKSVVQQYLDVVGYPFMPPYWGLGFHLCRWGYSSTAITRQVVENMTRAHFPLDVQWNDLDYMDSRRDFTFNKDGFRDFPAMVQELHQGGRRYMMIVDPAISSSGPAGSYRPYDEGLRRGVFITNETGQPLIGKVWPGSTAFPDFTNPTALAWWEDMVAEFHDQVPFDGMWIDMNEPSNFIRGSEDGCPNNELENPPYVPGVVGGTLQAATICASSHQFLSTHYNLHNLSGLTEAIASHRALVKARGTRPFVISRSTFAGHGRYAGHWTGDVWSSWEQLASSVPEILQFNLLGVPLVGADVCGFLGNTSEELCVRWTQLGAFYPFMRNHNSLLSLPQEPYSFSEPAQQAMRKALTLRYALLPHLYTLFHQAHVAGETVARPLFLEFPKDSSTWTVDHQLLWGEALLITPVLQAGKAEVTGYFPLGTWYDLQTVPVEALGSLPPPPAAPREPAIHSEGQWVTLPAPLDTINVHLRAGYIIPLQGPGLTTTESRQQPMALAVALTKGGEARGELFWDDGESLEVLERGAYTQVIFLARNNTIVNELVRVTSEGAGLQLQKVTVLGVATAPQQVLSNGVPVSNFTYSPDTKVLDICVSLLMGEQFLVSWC
Protocol: (§1) A bacterial clone containing the full length cDNA of […] (IRATp970C0971D, aligned to accession no. NM_000152.3, GeneBank) was received form ImaGenes GmbH, Berlin, Germany. Amplification was performed with the primers 5′-TAGGAGCTGTCCAGGCCATC-3′ (SEQ ID NO:3) and 5′-GAGAGACTAACACACTCCGC-3′ (SEQ ID NO:4). The PCR was carried out using iProof DNA Polymerase (BioRad). The cDNA was subcloned into pCRII TA TOPO vector (Invitrogen). Prior to ligation, the cDNA insert was incubated with Taq polymerase (Qiagen) to add a poly (A) overhang at the 3′-end for TA-cloning. For expression, the GAA cDNA was ligated into target vector pcDNA3.1/V5-His6 (Invitrogen) using sticky end ligation utilizing unique restriction sites (HindIII, XhoI) offered by both vectors multiple cloning sites.
(§2) Sample preparation was carried out analogously to the α-galactosidase A recordings. As substrate, a 1.3 mg 4-Methylumbelliferyl-α-D-Glukopyranoside/ml solution (in sodium acetate buffer, pH 4.0) was used and 5 μg sample/reaction were added. The reaction was incubated for 60 minutes at 37° C. and stopped with 1M Glycine-NaOH, pH 10.5.

[3] = system: acid α-glucosidase mutants; type: cell-based
Protocol: as §1, §2

[4] = target: GLA mutants (alpha-galactosidase A) (Homo sapiens, UniProt P06280, R301Q); conditions: GLA mutant R301Q; Ambroxol in combination with DGJ
Sequence of GLA mutants (alpha-galactosidase A) (Homo sapiens, UniProt P06280, R301Q) (P06280 32-429 R301Q): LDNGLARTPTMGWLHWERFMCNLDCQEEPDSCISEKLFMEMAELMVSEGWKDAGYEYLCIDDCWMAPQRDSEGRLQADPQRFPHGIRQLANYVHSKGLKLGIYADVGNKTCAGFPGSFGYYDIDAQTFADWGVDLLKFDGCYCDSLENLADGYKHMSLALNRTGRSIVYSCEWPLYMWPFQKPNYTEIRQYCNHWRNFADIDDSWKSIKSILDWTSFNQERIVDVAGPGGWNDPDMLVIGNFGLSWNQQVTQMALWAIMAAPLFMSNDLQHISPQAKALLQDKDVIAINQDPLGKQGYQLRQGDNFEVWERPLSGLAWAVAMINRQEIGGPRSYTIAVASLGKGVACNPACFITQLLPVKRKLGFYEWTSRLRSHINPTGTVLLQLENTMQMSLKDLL

[5] = target: GLA mutants (alpha-galactosidase A) (Homo sapiens, UniProt P06280, R363H); conditions: GLA mutant R363H; Ambroxol in combination with DGJ
Sequence of GLA mutants (alpha-galactosidase A) (Homo sapiens, UniProt P06280, R363H) (P06280 32-429 R363H): as the sequence (P06280 32-429 R301Q) above, with Q270R, R332H counted along it

## Nc1c(Br)cc(Br)cc1CN[C@H]1CC[C@H](O)CC1 [Ambroxol, 2-amino-3,5-dibromo-N-[trans-4-hydroxycyclohexyl]benzylamine]
[1]
  amount of Gal A protein in the cell (Western blot): higher amount of Gal A
[2]
  responsiveness of mutation Y575S: clear tendency to be responsive only towards the combination
[3]; 20 μM NB-DNJ + 40 μM Ambroxol compared to 20 μM NB-DNJ alone, FIG. 7
  activity of acid α-glucosidase, Ambroxol in combination with NB-DNJ: enhanced
[3]; 20 μM NB-DNJ and 40 μM Ambroxol, FIG. 7A
  enzyme activity of mutations Y455F, P545L and L552P, combined treatment: significantly increased
[3]; 40 μM Ambroxol without chaperone
  activity of mutant acid α-glucosidase, Ambroxol alone: not leading to an enhancement
[3]; mutations Y455F, P545L and L552P, compared to NB-DNJ
  activity when additionally treated with Ambroxol: tendency for higher activities
[4]
  additive Ambroxol effect demonstrated: **** (****p≤0.005)
[5]
  additive Ambroxol effect demonstrated: *** (***p≤0.01)
